Data: article PMC6152105, “NMR Insights into the Structure-Function Relationships in the Binding of Melanocortin Analogues to the MC1R Receptor” (Molecules : A Journal of Synthetic Chemistry and Natural …, 2017)
Entries after “also recorded” stand apart in the source; their conditions may differ. Like-named read-outs stand apart in the source and are kept apart here. Numbered stars: 1 amine (or outer) side, 2 acyl side, 3 side chain; on linkers, the order of the positions; unused ones are H or OH. Bridge positions count the residues as written; N and C are the ends. Square brackets hold non-standard residues; d marks the D form. Peptide text beside a SMILES is read from it. nitrobenzoyl (NO2-C6H3-CO) = nitrobenzoyl unit acylating the N-terminal His, with its aryl carbon thioether-bonded to the Cys side-chain S; X1 = O=C(c1cc([N+](=O)[O-])ccc1[*:2])[*:1]

What was measured:
MC1R [1] = molecular target: T1, MC1R (Mus musculus, UniProt Q01727); test: Competitive binding assay with [125I]-NDP-α-MSH in B16F1 melanoma cells; settings: [125I]-[Nle4,DPhe7]-α-MSH radioligand, murine melanoma B16F1 cells, in triplicate, GraphPad Prism fit, read-out: MC1R binding affinity (IC50)
T1 construct: endogenous in cells; host or cells: murine melanoma B16F1 cells
Method: The binding affinities of the peptides CycN-K6 and CycN-K7 to MC1R were tested in a competitive binding assay using [^125I]-[Nle^4,DPhe^7]-α-MSH ([^125I]-NDP-α-MSH) as radioligand and murine melanoma B16F1 cells (Figure S1, Supplementary Materials), as previously described for other α-MSH analogues. Table 1 lists the IC50 values obtained for those two peptides, and for the 19-membered macrocyclic peptides PG10N and CycS-C6 [19, 20]. […] Therefore, a detailed structural comparison of these three peptides is required to understand the molecular basis for their binding to receptor MC1R.
NDP-α-MSH was radioiodinated as described. To determine the inhibitory concentration of 50 % (IC50) values for the α-MSH analogues, competitive binding assays with [^125I]NDP-α-MSH in B16F1 melanoma cells were carried out in triplicate following the previously described procedure. IC50 values were calculated from the plots of the percentage of [^125I]NDP-α-MSH bound to the cells vs. the concentrations of displacing peptides by using GraphPad Prism software (GraphPad Software Inc., La Jolla, CA, USA).

MC1R [2] = molecular target: T1, MC1R; settings: ref [20], cited from earlier work
Excerpt: Table 1 Sequences, cycle size and MC1R binding affinities (IC50) of cyclic α-MSH analogues. | column: IC50 (nM) || Linear and cyclic analogues of the α-melanocyte stimulating hormone (α-MSH) targeting the human melanocortin receptor 1 (MC1R) are of pharmacological interest for detecting and treating melanoma. The central sequence of α-MSH (His-Phe-Arg-Trp) has been identified as being essential for receptor binding. To deepen current knowledge on the molecular basis for α-MSH bioactivity, we aimed to understand the effect of cycle size on receptor binding. To that end, we synthesised two macrocyclic isomeric α-MSH analogues, c[NH-NO2-C6H3-CO-His-DPhe-Arg-Trp-Lys]-Lys-NH2 (CycN-K6) and c[NH-NO2-C6H3-CO-His- ... || Aimed at enhancing the biological stability, potency and specificity of the endogenous ligand, a library of α-MSH analogues has been designed for imaging and therapeutic applications. […] However, replacement of the alkylthioaryl-bridge (Cy ... || (+ 1 further places)

MC1R [3] = settings: 19-membered parent peptide; ref [19]; read-out: MC1R binding affinity (IC50); cited from earlier work
Excerpt: Table 1 Sequences, cycle size and MC1R binding affinities (IC50) of cyclic α-MSH analogues. | column: IC50 (nM)

all human MCRs = settings: ref [19]; cited from earlier work
Excerpt: Aimed at enhancing the biological stability, potency and specificity of the endogenous ligand, a library of α-MSH analogues has been designed for imaging and therapeutic applications. […] However, replacement of the alkylthioaryl-bridge (Cy ...

T1 sequence (Q01727 whole entry): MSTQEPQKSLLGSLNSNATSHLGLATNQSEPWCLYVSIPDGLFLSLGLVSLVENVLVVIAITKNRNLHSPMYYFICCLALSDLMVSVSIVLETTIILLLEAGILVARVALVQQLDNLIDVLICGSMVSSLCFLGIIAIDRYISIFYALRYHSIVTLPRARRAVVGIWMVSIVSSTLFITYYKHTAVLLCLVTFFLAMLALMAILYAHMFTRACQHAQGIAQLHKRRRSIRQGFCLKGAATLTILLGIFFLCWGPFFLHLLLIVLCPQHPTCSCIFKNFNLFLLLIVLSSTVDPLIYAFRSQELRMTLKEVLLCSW

N=C(N)NCCC[C@@H]1NC(=O)[C@@H](Cc2ccccc2)NC(=O)[C@H](Cc2c[nH]cn2)NC(=O)c2cc([N+](=O)[O-])ccc2NCCCC[C@@H](C(=O)N[C@@H](CCCCN)C(N)=O)NC(=O)[C@H](Cc2c[nH]c3ccccc23)NC1=O [CycN-K6, c[NH–NO2–C6H3–CO–His–DPhe–Arg–Trp–Lys]–Lys–NH2] (H[dF]RWKK-NH2; linker N-5 via X1)
IC50 (MC1R [1]): 155 ± 16 nM

N=C(N)NCCC[C@@H]1NC(=O)[C@@H](Cc2ccccc2)NC(=O)[C@H](Cc2c[nH]cn2)NC(=O)c2cc([N+](=O)[O-])ccc2NCCCC[C@@H](C(N)=O)NC(=O)[C@H](CCCCN)NC(=O)[C@H](Cc2c[nH]c3ccccc23)NC1=O [CycN-K7, c[NH–NO2–C6H3–CO–His–DPhe–Arg–Trp–Lys–Lys]–NH2] (H[dF]RWKK-NH2; linker N-6 via X1)
IC50 (MC1R [1]): 495 ± 101 nM

c[S–NO2–C6H3–CO–His–DPhe–Arg–Trp–Cys]–Lys–NH2 (sidechain bridge or staple) ({nitrobenzoyl (NO2-C6H3-CO)}-H[dF]RWCK-NH2; thioether N-5) [CycS-C6, 19-membered cyclic analogue, previously reported by the authors]
IC50 (MC1R [2]; previously reported by the authors, competitive binding, [125I]-NDP-α-MSH, B16F1 cells, read-out: MC1R binding affinity (IC50)): 1770 ± 480 nM

c[S–NO2–C6H3–CO–His–DPhe–Arg–Trp–Cys]–Lys–NH2 (sidechain bridge or staple) [CycS-C6, 19-membered cyclic analogue, previously reported by the authors]
MC1R binding in words (MC1R [2]; relative to parent PG10N, addition of C-terminal Lys): strongly decreases affinity to MC1R; also recorded: impaired binding

c[S–NO2–C6H3–CO–His–DPhe–Arg–Trp–Cys]–NH2 (sidechain bridge or staple) [PG10N, 19-membered alkylthioaryl-bridged macrocyclic α-MSH analogue]
IC50 (MC1R [3]): 3.7 ± 0.5 nM | agonist activity (all human MCRs): potent full agonist for all human MCRs
